The record followed here is patent publication US20240224999A1, “METABOLIC INHIBITORS FOR CONTROLLING BIOFILM” (MC (US) 3 LLC, priority 2021, published 2024).

Test [1] has as its system Desulfovibrio vulgaris 29579. As to the kind of experiment: MBEC biofilm efficacy, Log (Growth) by enumeration. Conditions: testing time 2 days. In kind it is cell-based. The method, then: (§1) Strains of commonly found bacteria were used for testing the efficacy of the compounds, viz. Desulfovibrio alaskensis and Desulfovibrio vulgaris. Media for the cultures was also prepared by using a standard method. The cultures were aseptically used and incubated under anaerobic conditions. They were plated with an MBEC (minimal biofilm eradication concentration) lid, to allow for biofilm growth. […] Then the plates were rinsed, sonicated and enumerated. These enumerations were grown for 5-days for the readings.
(§2) A lyophilized Desulfovibrio alaskensis 14563, Desulfovibrio vulgaris 29579 pure cultures received from ATCC were resuspended individually in 500 ul of MB 1250. Aseptically, the content was transferred to a 5-mL tube of MB1250 medium. The cultures were incubated in an anaerobic chamber at 30° C. for 72 hrs. Subsequently, an individual stock culture with a final concentration of 25% glycerol were prepared by adding equal volumes of culture and 50% glycerol. 1 ml of the cultures were then transferred to 2-ml cryogenic vials and stored at −80° C. The purity of the stock cultures was evaluated through PCR, by amplifying the 16S rDNA region, and thus, it was verified that the original ATCC sample was a pure culture.
(§3) 48-hour cultures of ATCC Desulfovibrio alaskensis 14563 and Desulfovibrio vulgaris 29579 were prepared in an anaerobic chamber. Each culture was prepared as a 1:10 culture by taking 1 milliliter (mL) of a pure culture and inoculating 9 milliliters (mL) of fresh SRB2-LA media. Prepared cultures were incubated at 30° C. and further diluted 1:100 in SRB2-LA media after incubation. They were grown for another 24 hours then diluted 1:10. The 1:10 dilution was plated with an MBEC (minimal biofilm eradication concentration) lid, which would allow for biofilm growth.
(§4) Treatment plates were prepared by adding 180 μL of fresh phosphate buffer amended with 10% SRB2-LA media to each well. These wells were then dosed with the compounds of interest with a ppm range of 200 to 1 PPM. Edge wells were not used due to their inherent variability and evaporation of the media. Each experiment was done with at least three replicates for different treatments and non-treatment controls. After incubation of the MBEC plate, the MBEC lid was removed and added to a rinse plate containing phosphate buffer and 10% SRB2-LA. The lid was rinsed for 30 seconds then added to the treatment plate. The MBEC lids had 6 hours to 3 days of exposure time. After targeted exposure time, the plates were rinsed, sonicated, and enumerated. The rinse was done for 30 seconds in 10% SRB2-LA with phosphate buffer. Following the rinse, the lid was added to a plate with the same media and buffer mix and the plate was sonicated for 5 minutes. After five minutes, the lid was discarded, and each row of the plate was enumerated. These enumerations were grown for 5 days before being read.

Test [2] concerns Desulfovibrio alaskensis 14563. In words: MBEC biofilm efficacy, Log (Growth) by enumeration. In kind it is cell-based. Conditions: for Log (Growth): biofilm; for efficacy in controlling biofilm formation (in words): tested individually, standard temperature and pressure. The method, then:
as §1, §2, §3, §4

Entries after “also recorded” stand apart in the source; their conditions may differ.

Consider `O=C(CN1C(=O)c2cccc3cccc(c23)C1=O)NO` [Compound C1], for which the “Log (Growth)” value in test [1] (5 PPM) was determined as 4; in test [1] (25 PPM), 1; in test [1] (50 PPM) it was 1; in test [1] (100 PPM), 0; in test [1] (200 PPM), 1; in test [2] (testing time 6 hours, 1 PPM), 4. Besides, the “Log (Growth)” value in test [2] (testing time 6 hours, 5 PPM) is 2; in test [2] (testing time 6 hours, 10 PPM), 1; in test [2] (testing time 6 hours, 25 PPM) it was 1; in test [2] (testing time 6 hours, 50 PPM), 1; in test [2] (testing time 18 hours, 1 PPM) it was 1; in test [2] (testing time 18 hours, 5 PPM) it was 0. The “Log (Growth)” value is 0 in test [2] (testing time 18 hours, 10 PPM); 0 in test [2] (testing time 18 hours, 25 PPM); 0 in test [2] (testing time 18 hours, 50 PPM); 0 in test [2] (testing time 2 days, 1 PPM); 0 in test [2] (testing time 2 days, 2.5 PPM); 0 in test [2] (testing time 2 days, 10 PPM). Besides, the “Log (Growth)” value was 0 in test [2] (testing time 2 days, 15 PPM); 0 in test [2] (testing time 2 days, 20 PPM); 0 in test [2] (testing time 2 days, 25 PPM); 0 in test [2] (testing time 2 days, 40 PPM); 0 in test [2] (testing time 2 days, 50 PPM); 0 in test [2] (testing time 3 days, 50 PPM). Besides, the “Log (Growth)” value in test [2] (testing time 3 days, 100 PPM) was determined as 0; in test [2] (testing time 3 days, 200 PPM), 0. Also, the “killing of the microorganism strain Desulfovibrio alaskensis (in words)” value in test [2] (comparative testing against two commercial products, metabolic inhibition) was “completely killing”. Moreover, the “efficacy in controlling biofilm formation (in words)” value (“efficacy” below) in test [2] is “significant activity in controlling biofilms; also recorded: highest efficacy”.

In the case of `O=C(CCCN1C(=O)c2cccc3cccc(c23)C1=O)NO` [Compound C12], the “Log (Growth)” value in test [2] (testing time 2 days, 5 PPM) amounted to 1; in test [2] (testing time 2 days, 25 PPM) it was 0; in test [2] (testing time 2 days, 50 PPM) it was 1; in test [2] (testing time 2 days, 100 PPM), 0.3; in test [2] (testing time 2 days, 200 PPM), 0. Further, in test [2], the “efficacy” value is listed as “significant activity in controlling biofilms; also recorded: exhibited efficacy”.

With `CCCCCCCC(=O)NO` [Compound C16], the “Log (Growth)” value in test [2] (testing time 2 days, 5 PPM) was 5; in test [2] (testing time 2 days, 25 PPM), 5; in test [2] (testing time 2 days, 50 PPM), 3; in test [2] (testing time 2 days, 100 PPM), 1; in test [2] (testing time 2 days, 200 PPM), 0. For the same compound, the “efficacy” value in test [2] is given as “significant activity in controlling biofilms; also recorded: exhibited efficacy”.
